30 molecules from patent US20260209212A1, “HETEROCYCLIC GLP-1 AGONISTS” (Gasherbrum Bio, Inc., priority 2022, published 2026) can be followed below.

Structures are written as SMILES.

For orientation: EC50 means the midpoint of the concentration-response curve. Read a low EC50 as greater potency.

The assay has as its target GLP-1 Receptor (Homo sapiens, UniProt P43220). The assay can be described thus: GLP-1R agonist cAMP stimulation assay. It counts as cell-based. The settings on record: HEK293/GLP1R/CRE-LUC cells stably expressing the GLP-1 Receptor; cAMP dynamic 2 Kit (Cisbio); 30 min at 37° C. How it is done:
Activation of GLP-1 receptor is known to stimulate cyclic AMP (cAMP) production in cells which indicates primary coupling to the G as subunit of the G protein heterotrimeric complex.
To optimize functional activity directed toward G as coupling, a HEK293/CRE-Luc cell line developed by HDB stably expressing the GLP-1 Receptor was used. 200× concentration of compound working solutions were prepared (Agilent Technologies Bravo) with ½ log serial dilution in 384-well Echo LDV plate (Labcyte, Cat #LP-0200). 50 nL/well 200× concentration of compound working solutions were moved to 384-well white low volume plate (Greiner, Cat #784075) using Labcyte ECHO550.1×10^5 cells/mL HEK293/GLP1R/CRE-LUC (HD Biosciences) cell suspensions prepared with assay buffer [DPBS containing 0.5 mM IBMX (Sigma, Cat #I5879) and 0.1% BSA (GENVIEW, Cat #FA016-100 g)], 10 μL cell suspensions were added to each well of previous generated assay plate which already contains 50 nL compound at 200× concentration using ThermoFisher Multidrop Combi (1000 cells/well). Seal the plate and incubate at 37° C. with 5% CO2 for 30 min.
After incubation the cAMP assay signal was generated using cAMP dynamic 2 Kit (Cisbio). 5 μL cAMP-d2 working solution was added to each well, followed with 5 μL Anti-cAMP antibody-cryptate working solution added to each well using ThermoFisher Multidrop Combi. Incubate at room temperature for 1 hour protected from light. Read the fluorescence at 665 and 615 nm with Reader PerkinElmer EnVision.

Chain of GLP-1 Receptor (P43220 24-463): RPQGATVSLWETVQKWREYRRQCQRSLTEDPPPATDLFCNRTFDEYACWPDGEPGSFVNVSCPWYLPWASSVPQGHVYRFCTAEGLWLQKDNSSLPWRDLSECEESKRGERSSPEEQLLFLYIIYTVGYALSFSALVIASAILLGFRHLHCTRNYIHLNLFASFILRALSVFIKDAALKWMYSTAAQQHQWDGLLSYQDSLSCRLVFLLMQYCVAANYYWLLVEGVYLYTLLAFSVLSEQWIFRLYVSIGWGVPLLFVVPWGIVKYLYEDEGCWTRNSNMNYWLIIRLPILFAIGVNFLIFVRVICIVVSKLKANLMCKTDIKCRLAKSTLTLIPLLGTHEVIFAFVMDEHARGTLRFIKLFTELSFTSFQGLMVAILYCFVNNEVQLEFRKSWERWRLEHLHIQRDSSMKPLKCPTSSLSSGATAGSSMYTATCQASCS

In turn, `COc1cc(C(=O)O)cc2c1nc(CN1CCC(c3cccc4c3OC[C@@H](c3ccc(Cl)c5ccoc35)O4)CC1)n2C[C@@H]1CCO1` [Compound 120, 2-({4-[(2R)-2-(4-chloro-1-benzofuran-7-yl)-2,3-dihydro-1,4-benzodioxin-5-yl]piperidin-1-yl}methyl)-4-methoxy-1-{[(2S)-oxetan-2-yl]methyl}-1H-1,3-benzodiazole-6-carboxylic acid] displayed an EC50 of 0.005 nM. This counts as picomolar.

Consider `O=C(O)c1cc(F)c2nc(CN3CCC(c4cccc5c4OC[C@@H](c4ccc(Cl)c6ccoc46)O5)CC3)n(C[C@@H]3CCO3)c2c1` [Compound 122, 2-({4-[(2R)-2-(4-chloro-1-benzofuran-7-yl)-2,3-dihydro-1,4-benzodioxin-5-yl]piperidin-1-yl}methyl)-4-fluoro-1-{[(2S)-oxetan-2-yl]methyl}-1H-1,3-benzodiazole-6-carboxylic acid], for which the EC50 was determined as 0.0012 nM. This EC50 is about 4.2-fold lower than that of the molecule before.

The molecule `O=C(O)c1cc(F)c2nc(CN3CCC(c4cccc5c4OC[C@@H](c4ccc(Cl)cc4)O5)CC3)n(C[C@@H]3CCO3)c2c1` [Compound 111, 2-({4-[(2R)-2-(4-chlorophenyl)-2,3-dihydro-1,4-benzodioxin-5-yl]piperidin-1-yl}methyl)-4-fluoro-1-{[(2S)-oxetan-2-yl]methyl}-1H-1,3-benzodiazole-6-carboxylic acid] came in with an EC50 of 0.017 nM. This EC50 is about 14-fold higher than that of the molecule before.

`O=C(O)c1ccc2nc(CN3CCC(c4cccc5c4OC[C@@H](c4ccc(Cl)c6ccoc46)O5)CC3)n(C[C@@H]3CCO3)c2c1` [Compound 101] yielded an EC50 of 0.024 nM.

`CCn1cncc1Cn1c(CN2CCC(c3cccc4c3OC[C@@H](c3ccc(C#N)cc3)O4)CC2)nc2ccc(C(=O)O)cc21` [Compound 105]: a half-maximal response (EC50) required 0.012 nM.

`N#Cc1ccc([C@@H]2COc3c(cccc3C3CCN(Cc4nc5ccc(C(=O)O)cc5n4CC4(C#N)CC4)CC3)O2)cc1` [Compound 107]: the midpoint of the response, the EC50, lay at 0.18 nM.

Molecule `O=C(O)c1ccc2nc(CN3CCC(c4ccnc5c4OC[C@@H](c4ccc(Cl)cc4)O5)CC3)n(C[C@@H]3CCO3)c2c1` [Compound 130, 2-((4-((R)-3-(4-chlorophenyl)-2,3-dihydro-[1,4]dioxino[2,3-b]pyridin-8-yl)piperidin-1-yl)methyl)-1-(((S)-oxetan-2-yl)methyl)-1H-benzo[d]imidazole-6-carboxylic acid] yielded an EC50 of 0.16 nM.

`N#Cc1ccc([C@@H]2COc3c(cccc3C3CCN(Cc4nc5ccc(C(=O)O)c(F)c5n4C[C@@H]4CCO4)CC3)O2)cc1` [Compound 103] registered an EC50 of 0.057 nM.

For `N#Cc1ccc([C@@H]2COc3c(cccc3C3CCN(Cc4nc5ccc(C(=O)O)cc5n4CC4CCOC4)CC3)O2)cc1` (stereo partly drawn) [Compound 106, 2-({4-[(2R)-2-(4-cyanophenyl)-2,3-dihydro-1,4-benzodioxin-5-yl]piperidin-1-yl}methyl)-1-[(oxolan-3-yl)methyl]-1H-1,3-benzodiazole-6-carboxylic acid], a half-maximal effect (EC50) was put at 1.6 nM.

As for `CO[C@H]1COC[C@H]1n1c(CN2CCC(c3cccc4c3OC[C@@H](c3ccc(Cl)cc3)O4)CC2)nc2c(F)cc(C(=O)O)cc21` [Compound 123], a half-maximal effect (EC50) was put at 1.9 nM.

Consider `O=C(O)c1cc(F)c2nc(CN3CCC(c4cccc5c4OC[C@@H](c4ccc(C(F)F)cc4)O5)CC3)n(C[C@@H]3CCO3)c2c1` [Compound 115], for which the EC50 worked out at 0.055 nM.

In turn, `N#Cc1ccc([C@@H]2COc3c(cccc3C3CCN(Cc4nc5c(F)cc(C(=O)O)cc5n4C[C@@H]4CCO4)CC3)O2)cc1` [Compound 104, 2-({4-[(2R)-2-(4-cyanophenyl)-2,3-dihydro-1,4-benzodioxin-5-yl]piperidin-1-yl}methyl)-4-fluoro-1-{[(2S)-oxetan-2-yl]methyl}-1H-1,3-benzodiazole-6-carboxylic acid] returned an EC50 of 0.027 nM.

On to `CC(=O)N1C[C@H](F)C[C@@H]1Cn1c(CN2CCC(c3cccc4c3OC[C@@H](c3ccc(C#N)cc3)O4)CC2)nc2ccc(C(=O)O)cc21` [Compound 113], for which the EC50 was determined as 4 nM.

Molecule `O=C(O)c1ccc2nc(CN3CCC(c4nccc5c4OC[C@@H](c4ccc(Cl)cc4)O5)CC3)n(C[C@@H]3CCO3)c2c1` [Compound 128] gave an EC50 of 0.79 nM. Against the preceding molecule, the EC50 is about 5.1-fold lower.

In turn, `COc1cc(C(=O)O)cc2c1nc(CN1CCC(c3cccc4c3OC[C@@H](c3ccc(C#N)cc3)O4)CC1)n2[C@@H]1COC[C@@H]1OC` [Compound 124] registered an EC50 of 0.68 nM. The EC50 values of the last two molecules are within 1.5-fold of each other.

Consider `C[C@H]1CC(c2cccc3c2OC[C@@H](c2ccc(C#N)cc2)O3)CCN1Cc1nc2c(F)cc(C(=O)O)cc2n1C[C@@H]1CCO1` (stereo partly drawn) [Compound 109], for which the EC50 worked out at 0.041 nM. This EC50 lies about 17-fold lower than the previous one.

On to `CC1=C(c2cccc3c2OC[C@@H](c2ccc(Cl)cc2)O3)CCN(Cc2nc3ccc(C(=O)O)cc3n2C[C@@H]2CCO2)C1` [Compound 126], for which the midpoint of the response, the EC50, lay at 1.6 nM.

For `O=C(O)c1ccc2nc(CN3CCC(c4cccc5c4OC[C@@H](c4ccc6cnn(CC(F)F)c6c4)O5)CC3)n(C[C@@H]3CCO3)c2c1` [Compound 102, 2-({4-[(2R)-2-[1-(2,2-difluoroethyl)-1H-indazol-6-yl]-2,3-dihydro-1,4-benzodioxin-5-yl]piperidin-1-yl}methyl)-1-{[(2S)-oxetan-2-yl]methyl}-1H-1,3-benzodiazole-6-carboxylic acid], a half-maximal response (EC50) required 0.065 nM.

In turn, `COc1cc(C(=O)O)cc2c1nc(CN1CCC(c3cccc4c3OC[C@@H](c3ccc(C#N)cc3)O4)CC1)n2C[C@@H]1CCO1` [Compound 118, 2-({4-[(2R)-2-(4-cyanophenyl)-2,3-dihydro-1,4-benzodioxin-5-yl]piperidin-1-yl}methyl)-4-methoxy-1-{[(2S)-oxetan-2-yl]methyl}-1H-1,3-benzodiazole-6-carboxylic acid] returned an EC50 of 0.011 nM.

As for `COc1cc(C(=O)O)cc2c1nc(CN1CCC(c3cccc4c3OC[C@@H](c3ccc(Cl)cc3)O4)CC1)n2C[C@@H]1CCO1` [Compound 119, 2-({4-[(2R)-2-(4-chlorophenyl)-2,3-dihydro-1,4-benzodioxin-5-yl]piperidin-1-yl}methyl)-4-methoxy-1-{[(2S)-oxetan-2-yl]methyl}-1H-1,3-benzodiazole-6-carboxylic acid], the EC50 turned out to be 0.011 nM. This counts as picomolar.

As to `O=C(O)c1ccc2nc(CN3CC=C(c4cccc5c4OC[C@@H](c4ccc6cnn(CC(F)F)c6c4)O5)CC3)n(C[C@@H]3CCO3)c2c1` [Compound 117], the EC50 is 0.42 nM.

In turn, `O=C(O)c1cc(F)c2nc(CN3CCC(c4cccc5c4OC[C@@H](c4ccc(C(F)(F)F)cc4)O5)CC3)n(C[C@@H]3CCO3)c2c1` [Compound 116] gave a half-maximal effective concentration (EC50) of 0.029 nM.

Turning to `N#Cc1ccc([C@@H]2COc3c(cccc3C3CCN(Cc4nc5c(F)cc(C(=O)O)c(F)c5n4C[C@@H]4CCO4)CC3)O2)cc1` [Compound 108, 2-({4-[(2R)-2-(4-cyanophenyl)-2,3-dihydro-1,4-benzodioxin-5-yl]piperidin-1-yl}methyl)-4,7-difluoro-1-{[(2S)-oxetan-2-yl]methyl}-1H-1,3-benzodiazole-6-carboxylic acid], the EC50 came out at 0.025 nM.

Regarding `N#CCC1(Cn2c(CN3CCC(c4cccc5c4OC[C@@H](c4ccc(C#N)cc4)O5)CC3)nc3c(F)cc(C(=O)O)cc32)CC1` [Compound 112], it took 0.026 nM to reach a half-maximal effect (EC50). The EC50 values of the last two molecules are within 1.5-fold of each other.

In turn, `O=C(O)c1ccc2nc(CN3CCC4(c5cccc6c5OC[C@@H](c5ccc(Cl)cc5)O6)CC4C3)n(C[C@@H]3CCO3)c2c1` (stereo partly drawn) [Compound 127] had an EC50 of 500 nM.

`O=C(O)c1ccc2nc(CN3CC=C(c4cccc5c4OC[C@@H](c4ccc(Cl)cc4)O5)CC3)n(C[C@@H]3CCO3)c2c1` [Compound 125] showed an EC50 of 0.77 nM.

Molecule `O=C(O)c1cc(F)c2nc(CN3CCC(c4cccc5c4OC[C@@H](c4ccc(Cl)cc4)O5)CC3)n(C[C@@H]3CCO3)c2c1F` [Compound 121] came in with an EC50 of 0.031 nM. This EC50 lies about 25-fold lower than the previous one.

As for `N#Cc1ccc([C@@H]2COc3c(cccc3C34CCN(Cc5nc6ccc(C(=O)O)cc6n5C[C@@H]5CCO5)CC3C4)O2)cc1` (stereo partly drawn) [Compound 110, 2-({6-[(2R)-2-(4-cyanophenyl)-2,3-dihydro-1,4-benzodioxin-5-yl]-3-azabicyclo[4.1.0]heptan-3-yl}methyl)-1-{[(2S)-oxetan-2-yl]methyl}-1H-1,3-benzodiazole-6-carboxylic acid], the response was half-maximal at 100 nM (EC50).

`CO[C@@H]1COC[C@@H]1n1c(CN2CCC(c3cccc4c3OC[C@@H](c3ccc(C#N)cc3)O4)CC2)nc2ccc(C(=O)O)cc21` [Compound 114, 2-({4-[(2R)-2-(4-cyanophenyl)-2,3-dihydro-1,4-benzodioxin-5-yl]piperidin-1-yl}methyl)-1-[(3S,4S)-4-methoxyoxolan-3-yl]-1H-1,3-benzodiazole-6-carboxylic acid] gave an EC50 of 0.024 nM.

Molecule `O=C(O)c1ccc2nc(CN3CCC(c4c(F)ccc5c4OC[C@@H](c4ccc(Cl)cc4)O5)CC3)n(C[C@@H]3CCO3)c2c1` [Compound 129, 2-[[4-[(2R)-2-(4-chlorophenyl)-6-fluoro-2,3-dihydro-1,4-benzodioxin-5-yl]-1-piperidyl]methyl]-3-[[(2S)-oxetan-2-yl]methyl]benzimidazole-5-carboxylic acid] had an EC50 of 0.38 nM. This EC50 lies about 16-fold higher than the previous one.
